According to article PMC11507974, “Phytochemical Analysis, Antioxidant Activity and Bioassay-Guided Isolation of Acetylcholinesterase and Butyrylcholinesterase Inhibitors from Horsfieldia polyspherula Bark (Myristicaceae)” (Tropical Life Sciences Research, 2024):
Read-outs that look alike come from different tables or passages of the source.

Key:
DPPH radical scavenging = conditions: 15 min incubation, 517 nm
Protocol: The free radical scavenging activity of the samples was determined using 1,1-diphenyl-2 picrylhydrazyl (DPPH) assay as described with minor modification ([Chua et al. 2013]). The DPPH solution was prepared by dissolving 3.0 mg of DPPH in 150 mL of methanol to afford 20 μg/mL. A 750 μL of the sample’s solution at different concentrations, ranging from 1.25 mg/mL to 40 mg/mL was added to 1,500 μL of DPPH solution. The absorbance was recorded at 517 nm using Shimadzu UV-2600 UV-Vis spectrophotometer after 15 min of incubation at room temperature. Ascorbic acid was used as the positive control, while methanol was used as negative control for scanning the background. The ability to scavenge the DPPH was calculated using Equation 2:
(2) DPPH radical scavenging activity (%)=Abs control-Abs sample/Abs control×100
where Abs control is the absorbance of DPPH while Abs sample is the absorbance of the sample. […] All experiments were performed in triplicates.

BuChE from equine serum = target: T1, BuChE from equine serum (Equus caballus, UniProt P81908); experiment: biochemical; type: biochemical; conditions: for SI (selectivity index for BuChE): IC50 (AChE)/ IC50 (BuChE)
T1 construct: BuChE from equine serum lyophilized powder (C7512-1.2KU); purchased Sigma Aldrich, Germany C7512-1.2KU; host or cells: equine serum
Protocol: (§1) To assess the inhibitory activity of H. polyspherula extract, fractions and isolated compounds towards AChE and BuChE, Ellman’s spectrophotometric method was followed ([Ellman et al. 1961]) using purified AChE from Electrophorus electricus (electric eel) Type V-S (C2888-1K), and BuChE from equine serum lyophilized powder (C7512-1.2KU) all from Sigma Aldrich, Germany. The reaction took place in a final volume of 200 μL of a (140 μL to 160 μL) 100 mM phosphate-buffered solution at pH 7.5 for AChE and 8.0 for BuChE, containing (20 μL) 0.2 U of AChE or 0.1 U of BuChE. Inhibition curves were made by pre-incubating this mixture with six concentrations of each sample (20 μL) for 15 min. A sample with no compound (blank) was present to determine the 100% of enzyme activity. After the pre-incubation period, ten microlitre (10 μL) of 10 mM of 5,5′-dithiobis-2-nitrobenzoic acid (DTNB, D8130 Sigma Aldrich, Germany) was added prior to 14 mM (10 μL) acetylthiocholine iodide (A5751) or 14 Mm butyrylthiocholine iodide (B3253-5G) source from Sigma Aldrich, Germany) were added, DTNB produces yellow anion 5-thio-2-nitrobenzoic acid along with the enzymatic degradation of ATChI or BuTChI. Changes in absorbance were detected at 412 nm in a 96 well spectrophotometric microplate reader (Bostch Biotek) after 30 min. […] Data are analysed using excel, graph pad prism 9.0.0 and expressed as means ± SD of at least three different experiments in triplicate.
(§2) (3) % inhibition=[…]/Abs (blank)×100

[1] = target: T2, AChE from Electrophorus electricus (electric eel) Type V-S (Electrophorus electricus, UniProt O42275); experiment: biochemical; type: biochemical; conditions: for SI (selectivity index for AChE): IC50 (BuChE)/ IC50 (AChE)
T2 construct: purified AChE from Electrophorus electricus (electric eel) Type V-S (C2888-1K); purchased Sigma Aldrich, Germany C2888-1K
Protocol: as §1, §2

[2] = IC50 BuChE, pure compounds (μM for the pure compound)
[3] = IC50 AChE, pure compounds (μM for the pure compound)
[4] = pure compounds (μM for the pure compound)

T1 sequence (P81908 whole entry): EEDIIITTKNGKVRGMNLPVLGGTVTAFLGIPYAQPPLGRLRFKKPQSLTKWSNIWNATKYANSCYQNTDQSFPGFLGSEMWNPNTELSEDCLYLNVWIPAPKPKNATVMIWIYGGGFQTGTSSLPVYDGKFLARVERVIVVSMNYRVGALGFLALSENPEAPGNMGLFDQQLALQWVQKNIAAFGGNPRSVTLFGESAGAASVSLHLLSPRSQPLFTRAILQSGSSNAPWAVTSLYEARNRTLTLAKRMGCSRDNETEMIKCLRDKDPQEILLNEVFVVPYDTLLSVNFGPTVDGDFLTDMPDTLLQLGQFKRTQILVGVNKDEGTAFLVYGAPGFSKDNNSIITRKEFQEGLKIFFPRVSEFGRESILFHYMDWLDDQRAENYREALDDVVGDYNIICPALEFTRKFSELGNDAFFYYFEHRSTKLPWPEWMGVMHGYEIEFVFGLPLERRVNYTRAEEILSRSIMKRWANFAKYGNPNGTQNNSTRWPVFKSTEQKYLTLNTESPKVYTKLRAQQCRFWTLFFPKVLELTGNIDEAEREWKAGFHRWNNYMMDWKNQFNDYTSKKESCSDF
T2 sequence (O42275 24-633): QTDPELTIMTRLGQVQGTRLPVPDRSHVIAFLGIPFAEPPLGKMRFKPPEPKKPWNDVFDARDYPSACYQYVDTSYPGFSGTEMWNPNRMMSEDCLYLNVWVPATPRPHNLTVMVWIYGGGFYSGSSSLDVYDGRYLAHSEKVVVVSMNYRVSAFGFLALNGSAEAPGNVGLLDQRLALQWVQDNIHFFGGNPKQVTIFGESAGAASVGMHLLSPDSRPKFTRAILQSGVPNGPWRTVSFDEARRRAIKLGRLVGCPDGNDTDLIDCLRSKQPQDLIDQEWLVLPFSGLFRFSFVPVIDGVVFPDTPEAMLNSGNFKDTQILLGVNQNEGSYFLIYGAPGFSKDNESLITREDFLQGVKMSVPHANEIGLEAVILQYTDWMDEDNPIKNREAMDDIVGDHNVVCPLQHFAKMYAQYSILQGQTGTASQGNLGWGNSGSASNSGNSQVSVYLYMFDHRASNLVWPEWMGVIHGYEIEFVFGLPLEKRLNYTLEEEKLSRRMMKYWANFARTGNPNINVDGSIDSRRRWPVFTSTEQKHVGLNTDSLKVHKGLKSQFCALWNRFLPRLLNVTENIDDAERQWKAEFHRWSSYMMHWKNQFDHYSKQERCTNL

Row | Structure (SMILES) | IC50 of DPPH free radical scavenging activity (DPPH radical scavenging) | SI (selectivity index for BuChE) (BuChE from equine serum) | SI (selectivity index for AChE) [1] | IC50 (BuChE from equine serum; [2]) | IC50 [1, 3] | further results
1 | O=C1O[C@H]([C@@H](O)CO)C(O)=C1O [Ascorbic acid, reference compound] | 4.21 ± 0.13 µg/mL |  |  |  |  | 
2 | O=C(O)CCCCCCCCCCCCCCCc1ccccc1 [Compound 1, 16-phenylhexadecanoic acid] |  | 1.14 | 0.88 |  |  | IC50 (BuChE from equine serum; pure compounds (μM for the pure compound), read-out: IC50 BuChE): 41 ± 1.99 µM; IC50 ([1]; pure compounds (μM for the pure compound), read-out: IC50 AChE): 46.8 ± 2.44 µM
3 | CCCCCCCCCCCc1ccccc1 [Compound 2, Undecylbenzene] |  | 1.05 | 0.95 | 234 ± 4.78 µM | 246.1 ± 1.4 µM | 
4 | O=C(O)c1ccc(O)c(O)c1 [Compound 3, 3,4-dihydroxybenzoic acid] | 6.56 ± 0.02 µg/mL | 1.41 | 0.71 | 232 ± 8.37 µM | 327 ± 6.83 µM | 
5 | CCCCCCCCCCCCCC(=O)OCC(COC(=O)CCCCCCCCCCCCC)OC(=O)CCCCCCCCCCCCC [Compound 9, Trimyristin] |  |  |  |  |  | IC50 BuChE (BuChE from equine serum; [4]): no inhibitory activities; IC50 AChE [1, 4]: no inhibitory activities
6 | CNC(=O)Oc1ccc2c(c1)[C@]1(C)CCN(C)[C@@H]1N2C [Eserine, reference compound] |  |  |  |  |  | % inhibition BuChE (BuChE from equine serum; control, tested at 0.2 μM): 44.45 ± 0.23%
